Reference: US20200123127A1, “REMOVAL OF SENESCENCE-ASSOCIATED MACROPHAGES” (EVERON BIOSCIENCES, INC., priority 2016, published 2020)
“Also recorded” adds a separate entry of the source.

Experiments:
[1] = tested on: B16 melanoma lung metastasis in C57BL/6 mice; experiment: Senescence-enhanced B16 lung metastasis model; assay type: in vivo, mouse
Description: FIG. 4. Efficacy of A1.1 analogs in the senescence-enhanced B16 metastasis model. (A) Quantification of metastatic nodules by H&E morphometric analysis, and the resulting reduction in tumor burden (%) compared to vehicle control. (B) Quantitation morphometric analysis of lungs excised from irradiated mice treated with analogs of A1.1 post-inoculation of B16 cell intravenously, along with quantitation of morphometric analysis, are provided. (C) In vitro testing of A1.1 and analogs against the growth and viability of B16 cells, as assessed by the resazurin viability assay after 72 hour exposure to compounds compared to non-treated controls.
The role of senescent cells in the promotion of metastatic potential of cancer cells has also been described [Patent WO 2013090645 A1; Campisi, J. (2015). Cancer and Aging: Rival Demons]. […] To test the efficacy of A1.1, irradiated (11 Gy followed by bone-marrow transplantation) and non-irradiated C57BL/6 mice received B16 melanoma cells via tail vein injection were subsequently (72 hours later) administered A1.1 (20 mg/kg) intraperitoneally once a day for 5 consecutive days.
Synthesized analogs were also tested in vivo, to assess whether optimized structures are capable of showing activity against senescence-mediated B16 lung metastasis in irradiated mice (FIG. 4B). Analogs A1.1, A1.12, A1.13, A1.14, A1.15, and A1.6 were administered at 20 mg/kg intraperitoneally for 5 consecutive days. In addition to A1.1, treatment with analogs A1.12, A1.14 and A1.15 at 20 mg/kg reduced the metastatic burden in the lungs of irradiated mice by more than 2-fold.

SAMs = experiment: SAM viability (CyQuant Direct / resazurin); assay type: cell-based, mouse; details: for SAM cell viability: 2.5 to 10 μM
Procedure: FIG. 8. Immunomodulatory regulation of p16(Ink4a) and SAβG in macrophages. Peritoneal lavage cells elicited by alginate-encapsulated SCs from p16^Ink4a/Luc mice were treated ex vivo with immunomodulatory agents for up to 72 hours. (A) mRNA expression of p16(Ink4a) and β-galactosidase (Glb1) in macrophages (relative to B2m expression) with or without LPS stimulation for 72 hours analyzed via qRT-PCR, normalized to non-treated controls. (B) Microphotograph of SAβG-stained adherence-selected macrophages with or without stimulation with LPS (1 ng/mL) for 72 hours (10× objective). (C&D) Kinetics of p16(Ink4a) promoter-dependent luciferase activity per cell with or without LPS stimulation (C) or IL-4 stimulation (D), normalized to activity from non-treated cells at time zero. Results are shown as the mean±standard deviation for at least 3 experiments. Statistical significance with respect to non-treated control at time zero is indicated. (E) Luciferase activity and (3-galactosidase activity (via 4-MUG hydrolysis) from proteose peptone-elicited lavage cells following stimulation with IL-4 (20 ng/mL) for 72 hours, normalized to non-treated controls. (F) Viability following 72 hour dose-response to JAK1/2 inhibitor Ruxolitinib in the presence or absence of IL-4 (10 ng/mL) stimulation, measured by CyQuant Direct DNA-based viability assay. Viability normalized to respective controls lacking Ruxolitinib. (G&H) Dose-response of STAT6 inhibitor AS1517499 against luciferase activity (G) and viability via CyQuant Direct assay (H) following 72 hour treatment in the presence and absence of IL-4 (10 ng/mL). Results normalized to respective controls (with or without IL-4) lacking STAT6 inhibitor. Statistical significance is calculated with respect to the difference between IL-4 stimulated and non-stimulated cells at each concentration of STAT6 inhibitor. (I) Relative luciferase activity per cell following repolarization with M1- and M2-inducing agents. Macrophages were left non-treated (NT) or treated with either LPS (1 ng/ml) or IL-4 (20 ng/ml) for 72 hours (days 1-3), as indicated. For each treatment set, samples were collected at 72 hours (no further treatment; days 4-6=x). Alternatively, cells were washed and placed in fresh medium (−), medium containing LPS (1 ng/mL) and IFN-γ (10 ng/mL), or medium containing IL-4 (20 ng/mL) and IL-13 (10 ng/mL) and incubated for an additional 72 hours prior to sample collection (as indicated for days 4-6). Luciferase activity is expressed as the percent activity per cell relative to non-treated (NT) controls after the first 72 hours.
FIG. 10. Elevated p16(Ink4a) and β-galactosidase is regulated by immunomodulatory agents in macrophages, but not in mesenchymal SCs. Primary cultures of adipose-derived mesenchymal stromal cells (AdMSC) isolated from p16^Ink4a/Luc mice were irradiated (20 Gy) and cultured for 10 days for senescence induction. Mock irradiated cells were used as a proliferating cell control. Response of senescent and proliferating AdMSCs to immunomodulatory agents were compared to that of peritoneal lavage cells elicited by our alginate bead model. A-D) Dose-response curves of LPS (top panels: […]) and Poly(I:C) (bottom panels: C&D) on p16(Ink4a) promoter-dependent luciferase activity (left panels: A&C) and beta-galactosidase activity measured via 4-MUG hydrolysis (right panels: B&D) after 72 hr treatment. […]
FIG. 13. […] SAM viability was determined using the resazurin cell viability assay (Res). […]

[2] = tested on: p16(Ink4a) expression in macrophages; experiment: Immunomodulators in vivo in p16Ink4a/Luc mice bearing alginate-encapsulated cells; set-up: species or system mouse; details: for in vivo bioluminescence / elevated p16(Ink4a) expression: after 10 day induction of bioluminescence, Poly(I:C) 2 and 10 mg/kg intraperitoneally
Procedure: Mice were injected intraperitoneally with a 200 μl solution of 15 mg/mL D-luciferin potassium salt (Syd Labs; Boston, Mass.) in D-PBS without calcium and magnesium. At 10 minutes post-injection, isoflurane-anesthetized mice were placed into the IVIS Spectrum in vivo bioluminescent imaging system (PerkinElmer; Waltham, Mass.) for detection of luciferase activity (60-second exposure). Bioluminescence in p16^LUC mice was quantified as total flux (p/s) of luminescent signal from the abdomen using via Living Image® software.
We next investigated whether p16(Ink4a) expression was susceptible to M1-mediated regulation in vivo using immunotherapeutic agent Poly(I:C). Upon intraperitoneal injection of alginate-encapsulated cells, p16^Iak4a/Luc mice accumulate luciferase-positive macrophages that can be monitored in vivo via the IVIS imaging system. […] Further, treatment with Poly(I:C) had no effect on β-galactosidase activity nor viability (>95%) of lavage cells, consistent with in vitro data.

For COc1ccc(C2CC(=NO)c3c(SCc4ccccc4)sc(C(=O)NCc4cccc(F)c4)c3C2)cc1 (stereo not drawn) [Example A1.6, 3-(Benzylthio)-N-(3-fluorobenzyl)-4-(hydroxyimino)-6-(4-methoxyphenyl)-4,5,6,7-tetrahydrobenzo[c]thiophene-1-carboxamide], the “reduction of B16 metastatic load in the lungs of irradiated mice vs vehicle” value ([1]; 20 mg/kg intraperitoneally once a day for 5 consecutive days, irradiated (11 Gy) C57BL/6 mice) was “did not show a substantial decrease”, the SAM cell viability (SAMs; resazurin / CyQuant, listed as TA-4812) was “no effect” and the SAM cell viability (SAMs; resazurin / CyQuant, listed as TA-04812-1) was “little to no effect”.

O=C(NCCCc1cn[nH]c1)c1ccc(-c2ccncc2)c(C#Cc2ccc(F)cc2)c1 [OT-82] was tested, and the “toxicity to SAMs in combination with inducers of the M1-phenotype (LPS and interferon-gamma)” value (SAMs; resazurin) was “toxic” and the “toxicity to SAMs, OT-82 by itself” value (SAMs; resazurin / CyQuant, 500 nM) was “low SAM toxicity; also recorded: almost non-toxic; also recorded: not toxic”.

With IFN-α the “in vivo bioluminescence / elevated p16(Ink4a) expression” value [2] was “abrogates”.

For Poly(I:C), the “in vivo bioluminescence / elevated p16(Ink4a) expression” value [2] was “complete abrogation of signal”, the “viability of lavage cells” value ([2]; mouse, in vivo) was over 95% and the “β-galactosidase activity of lavage cells” value ([2]; mouse, in vivo) was “no effect”. The “proportion of CD11b+ F4/80+ macrophages” value ([2]; peritoneal lavage) was “no difference” and the “decrease in luciferase activity per lavage cell vs non-treated controls” value ([2]; peritoneal lavage cells) was over 6 fold.

In the case of CCOC(=O)c1sc(SCc2ccccc2)c2c1CC(c1ccc(OC)cc1)C/C2=N\O (stereo not drawn) [Example A1.1], the “tumor burden in non-irradiated animals” value ([1]; 20 mg/kg intraperitoneally, 5 consecutive days, non-irradiated mice) is reported as “did not affect”.
